The results in this text go back to patent US20150087722A1, “TREATMENT FOR BREAST TUMOR CELL METASTASIS” (China Medical University, priority 2012, published 2015).

Where two headings read alike, the source gives them in different places.

Experiment [1] has as its system breast tumor cells MDA-MB-231. In words: MTT cell viability assay. In kind it is cell-based, human. The note with it: for IC50: Homo sapiens; for cell viability: FIG. 13. The protocol: The breast tumor cells (MDA-MB-231, MDA-MB-435, MDA-MB-453, MDA-MB-468 and MCF-7) were commercially obtained from the bioresource collection and research center (BCRC), and were cultured in a 10% FBS-DMEM culture medium (i.e., a DMEM culture medium including 10% fetal bovine serum (FBS)). The human breast cell MCF-10A was cultured in a 5% FBS-DMEM culture medium (including F12, insulin, hydrocortisol and epidermal growth factor). An environment of 5% CO2 was kept in the incubator at a constant temperature of 37° C. When a certain number of cells were generated in culture, the culture medium was removed after being centrifuged for 10 min at a rate of 900 rpm. The culture medium was replaced in 24 h before the experiment, and the number of cells was counted by a hemocytometer.
The cell viability was determined by a method of […] (MTT assay). The test method for assaying cell viability refers to steps provided by Parada-Turska et al.
The breast tumor cells MDA-MB-231 were inoculated in a 24-well plate (2.5×10^5 cells/well), and the next day after cells were adhered to the wall of the plate, the cells were washed with PBS. 1% FBS-DMEM culture medium was then added so as to synchronize cells. The next day compound II having different concentrations were added into the wells, and the cells were subsequently cultured in an atmosphere of 5% CO2 at 37° C. for 24 h. The cells were washed with PBS once, and 400 μl MTT agent was added in each well so as to react for 4 h. Then 400 μl 10% SDS was added in each well so as to react for 12 h. 200 μl supernatant was taken from the well and then added into a 96-well microplate, so as to measure the absorbance at 570 nm.
FIG. 13 separately illustrates the viabilities of cells treated with the compound II in different doses, and whether the viabilities of cells were recovered when the cells were treated with both the compound II and the antioxidant NAC, so as to illustrate the effect of increased reactive oxygen species caused by the compound II on the tumor cell proliferation. The test method for measuring the cell viability refers to steps described in test example 2-1. The breast tumor cells MDA-MD-231 were treated with the compound II of 0, 2, 5, 7.5, 10 and 15 μM for 24 h, and then the effect of the compound II on viability of breast tumor cells MDA-MD-231 was observed. FIG. 13 is a quantitative diagram, the data result was represented by mean±SD values, where n=3.
On the technique in general: Tetrazolium dyes change colour on reduction, which living cells bring about.

For experiment [2], the system named is MDA-MB-231 inoculated nude mice. In words: nude mice xenograft tumor model. The class given is in vivo, nude mice of BALB/c-nu species. Particulars: about 0.75 mg/Kg injected everyday. The protocol:
The in vivo experiment was performed in a nude mice xenograft tumor model. The experimental animals were nude mice of BALB/c-nu species commercially obtained from the National Laboratory Animal Center (NLAC). The nude mice were raise in a germ-free box and the light application time was 7:00-19:00. Filtered air, sterilized water and feed were supplied to and naturally eaten by the nude mice. Female nude mice which matured in 8-10 weeks were used to perform the experiment. The breast tumor cell (2×10^6/100 μl) was injected into one side of each back part of 60 nude mice in a hypodermic injection manner. After about 10 days 1-3 mm tumor was grown on each back of the nude mice, the nude mice were randomly divided into 4 groups. Three groups of nude mice were fed with the active ingredient Antrodia camphorata in different doses. The tumor growth was observed and photographed every day. The tumor volume was measured every three days. The volume was calculated according to the equation provided by Osborne et al in 1987. The experimental animals were divided into the control group (not treated), the solvent group (only physiological saline was injected) and a group injected with the compound II (the dose was about 0.75 mg/Kg). The injection was performed everyday, and the animals were fed in normal conditions and photographed for record, so as to compare the tumor growth condition of experimental animals in each group.

The subject of experiment [3] is human normal breast cells MCF-10A stimulated by TNF-α/TGF-β. In words: F-actin immunofluorescence staining (cell morphology). The class given is cell-based. Particulars: 2 μM with TNF-α/TGF-β 10 ng/ml, 24 h. The text has this: FIG. 5 illustrates photographs taken at a 200× field under a fluorescence microscope, where a primary antibody F-actin is used and the cells are stained through the immunofluenrence staining method. Specifically, the photographs noted as “Control” in the first column show the morphologies of the human normal breast cells MCF-10A without being treated with the compound I and TNF-α/TGF-β. The photographs noted as “TNF-αTGF-β” in the second column show the morphologies of the human normal breast cells MCF-10A treated with TNF-α/TGF-β wherein the concentrations of TNF-α and TGF-β were 10 ng/ml. The photographs noted as “Compound I (2 μM)” in the third column show the morphologies of the human normal breast cells MCF-10A treated with the compound I having a concentration of 2 μM. The photographs noted as “TNF-α/TGF-β Compound I (2 μM)” in the fourth column show the morphologies of the human normal breast cells MCF-10A treated with the compound I, TNF-α and 10 TGF-β for 24 h, wherein the concentrations of the compound I, TNF-α and 10 TGF-β were 2 μM, 10 ng/ml and 10 ng/ml, respectively.

For experiment [4] the test system is unchanged. In words: transwell invasion assay. The class given is cell-based. The note with it: 2 μM with TNF-α/TGF-β 10 ng/ml simultaneously.

In general, IC50 refers to the concentration that gives 50% inhibition. As for `COC1=C(OC)C(=O)C(C)=C(C)C1=O` [compound II], the IC50 is roughly 6.5 µM in experiment [1] (MDA-MB-231, 0-40 μM for 24 h, FIG. 1A, read-out: IC50 for inhibiting the MDA-MB-231) and 7.51 µM in experiment [1] (viability, MDA-MB-231 cell strain, Table 1, read-out: IC50). For the same compound, the cell viability result in experiment [1] (MDA-MB-231, 2-15 μM, 24 h) is recorded as “significantly decreased”; in experiment [1] (MDA-MB-231, with antioxidant NAC), “not influenced”. Also, the “tumor a period after injection” value in experiment [2] is given as “completely disappears”. Also, the “tumor volume versus control group” value in experiment [2] was “obviously smaller”. This compound also returned a tumor weight in experiment [2] (control 0.455±0.328) of 0.039±0.028.
For the compound `COC1=C(OC)C(=O)C(C)=CC1=O` [compound I], in experiment [3], the “cell morphology (F-actin staining)” value is reported as “still was epithelial-like”. Also, the “invasion of MCF-10A” value in experiment [4] is recorded as “significantly decreased”.
